Source: US10517889B2, “Modulators of SMAD7 expression” (Ionis Pharmaceuticals, Inc., priority 2017, dated 2019)
Strand notation (5' to 3'): a small letter for the sugar, then the base; units joined by * are phosphorothioate-linked, units joined directly phosphodiester-linked; [ ] holds rarer units or linkages, { } end groups; capitals alone tell only the bases. e = 2'-O-(2-methoxyethyl) (MOE); [5mC] = 5-methylcytosine; d = 2'-deoxy (DNA)

Test system: human SMAD7 mRNA
Assay: Antisense inhibition of human SMAD7 mRNA expression in Hep3B cells by 5-10-5 MOE gapmers, single concentration, electroporation, RT-PCR (Example 1, Study 1 and 2)
Type: cell-based
Method in brief: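 Hep3B cells (20,000/well) electroporated with 5-10-5 MOE gapmer at 5,000 nM or 15,000 nM for approximately 24 h. SMAD7 mRNA quantified by real-time PCR with primer probe set RTS5062 and normalized to RIBOGREEN total RNA. Values are percent inhibition relative to untreated controls.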

[1] = Study 2, electroporation with 15,000 nM antisense oligonucleotide, 5-10-5 MOE gapmers targeting SEQ ID NO: 1 and 2
[2] = electroporation, 5,000 nM, approximately 24 hours, relative to untreated control cells, gapmers targeting SEQ ID NO: 1 and 2
[3] = electroporation, 15,000 nM antisense oligonucleotide (Study 2), 5-10-5 MOE gapmers targeting SEQ ID NO: 1 and 2
[4] = electroporation, 15,000 nM, approximately 24 hours, relative to untreated control cells, gapmers targeting SEQ ID NO: 1 and 2
[5] = electroporation with 15,000 nM antisense oligonucleotide (Study 2), 5-10-5 MOE gapmers targeting SEQ ID NO: 1 and 2

Substance: 771883 (antisense eA*eG*e[5mC]*eT*eG*dG*d[5mC]*dA*d[5mC]*dT*dG*dA*dA*dT*dG*e[5mC]*eT*eG*eA*eT) [compound 771883]
- % Inhibition [1]: 26%
- % inhibition of SMAD7 mRNA expression [2]: 0%

Substance: 771690 (antisense e[5mC]*e[5mC]*eT*eA*eG*dT*dT*d[5mC]*dG*d[5mC]*dA*dG*dA*dG*dT*e[5mC]*eG*eG*e[5mC]*eT) [compound 771690]
- % inhibition of SMAD7 mRNA expression [3]: 43%

Substance: 771852 (antisense eA*eG*eA*eT*eT*dT*dA*dA*dA*dA*dT*dT*dA*dA*dA*eA*eA*eG*e[5mC]*eA) [compound 771852]
- % Inhibition [1]: 0%

Substance: 771561 (antisense e[5mC]*eA*e[5mC]*eT*e[5mC]*d[5mC]*dT*dG*dA*d[5mC]*dA*dA*dG*dT*dG*eA*eA*eA*eT*eG) [compound 771561]
- % inhibition of SMAD7 mRNA expression [3]: 30%

Substance: 771756 (antisense e[5mC]*e[5mC]*eA*eG*eG*d[5mC]*dA*dA*d[5mC]*d[5mC]*d[5mC]*d[5mC]*dA*dG*dA*e[5mC]*e[5mC]*eT*eG*e[5mC]) [compound 771756]
- % Inhibition [1]: 11%

Substance: 771350 (antisense eT*eT*eT*eG*e[5mC]*d[5mC]*d[5mC]*d[5mC]*dA*dA*dA*dA*d[5mC]*dT*d[5mC]*e[5mC]*eA*eA*eA*eG) [compound 771350]
- % Inhibition [1]: 28%
- % inhibition of SMAD7 mRNA expression [2]: 68%

Substance: 771917 (antisense e[5mC]*e[5mC]*eA*eG*eA*d[5mC]*d[5mC]*d[5mC]*d[5mC]*dT*dT*d[5mC]*dT*dT*dA*eA*eA*eT*eT*eT) [compound 771917]
- % inhibition of SMAD7 mRNA expression [4]: 22%

Substance: 771882 (antisense eG*e[5mC]*eA*eT*e[5mC]*dA*dT*dG*dA*dA*dA*dA*dT*d[5mC]*dT*eT*eA*eA*eT*eA) [compound 771882]
- % inhibition of SMAD7 mRNA expression [3]: 35%

Substance: 771712 (antisense eA*eT*eT*e[5mC]*eT*dT*dT*dT*dA*dG*d[5mC]*d[5mC]*d[5mC]*dA*dA*e[5mC]*eT*eG*eT*eT) [compound 771712]
- % Inhibition of SMAD7 mRNA [5]: 27%
- % inhibition of SMAD7 mRNA expression [3]: 3%

Substance: 771904 (antisense e[5mC]*e[5mC]*e[5mC]*eA*eA*d[5mC]*d[5mC]*d[5mC]*dA*dT*d[5mC]*dT*d[5mC]*d[5mC]*dA*e[5mC]*e[5mC]*eA*e[5mC]*e[5mC]) [compound 771904]
- % Inhibition of SMAD7 mRNA [5]: 0%
- % inhibition of SMAD7 mRNA expression [3]: 0%

Substance: 771630 (antisense eT*eG*e[5mC]*eT*eA*dA*dG*d[5mC]*dA*dT*dG*dT*d[5mC]*d[5mC]*d[5mC]*eT*e[5mC]*e[5mC]*e[5mC]*eA) [compound 771630]
- % inhibition of SMAD7 mRNA expression [1]: 37%

Substance: 771761 (antisense e[5mC]*e[5mC]*e[5mC]*e[5mC]*eA*dT*dT*d[5mC]*d[5mC]*dT*d[5mC]*d[5mC]*dA*dG*dT*e[5mC]*eT*eT*eT*eA) [compound 771761]
- % inhibition of SMAD7 mRNA expression [3]: 33%

Substance: 771503 (antisense eG*e[5mC]*eT*e[5mC]*eA*d[5mC]*dG*d[5mC]*dT*d[5mC]*dT*dG*dT*d[5mC]*d[5mC]*e[5mC]*e[5mC]*eT*e[5mC]*e[5mC]) [compound 771503]
- % inhibition of SMAD7 mRNA expression [1]: 27%

Substance: 771470 (antisense eG*e[5mC]*eA*e[5mC]*e[5mC]*dT*dT*d[5mC]*dT*dG*d[5mC]*dA*d[5mC]*d[5mC]*dA*eG*e[5mC]*eT*eG*eA) [compound 771470]
- % inhibition of SMAD7 mRNA expression [4]: 56%

Substance: 771752 (antisense eA*eA*eT*eG*eT*d[5mC]*d[5mC]*d[5mC]*dT*dG*dT*dG*dG*dG*dT*eT*eT*e[5mC]*e[5mC]*eA) [compound 771752]
- % Inhibition of SMAD7 mRNA [5]: 3%
- % inhibition of SMAD7 mRNA expression [3]: 0%

Substance: 771804 (antisense eG*eA*e[5mC]*eA*eG*dA*dT*dG*d[5mC]*d[5mC]*dA*dG*d[5mC]*dA*dA*eG*eG*eA*eT*e[5mC]) [compound 771804]
- % Inhibition [1]: 17%

Substance: 771706 (antisense eG*eG*eG*e[5mC]*e[5mC]*dT*dG*dG*dA*d[5mC]*d[5mC]*dA*dA*dA*dT*e[5mC]*e[5mC]*eA*eA*e[5mC]) [compound 771706]
- % inhibition of SMAD7 mRNA expression [3]: 22%

Substance: 771564 (antisense eG*e[5mC]*e[5mC]*eG*e[5mC]*dA*d[5mC]*dA*d[5mC]*dT*d[5mC]*dA*d[5mC]*dA*d[5mC]*eT*e[5mC]*eA*e[5mC]*eA) [compound 771564]
- % inhibition of SMAD7 mRNA expression [1]: 28%

Substance: 771453 (antisense eA*eT*e[5mC]*eT*eG*dG*dA*d[5mC]*dA*dG*dT*d[5mC]*dT*dG*d[5mC]*eA*eG*eT*eT*eG) [compound 771453]
- % inhibition of SMAD7 mRNA expression [1]: 38%

Substance: 771860 (antisense e[5mC]*eT*eG*eG*e[5mC]*dT*d[5mC]*dA*dG*dA*dG*dG*d[5mC]*dT*dG*e[5mC]*eA*eG*eT*eG) [compound 771860]
- % Inhibition [1]: 20%

Substance: 771760 (antisense eA*eT*e[5mC]*eT*eT*dA*d[5mC]*d[5mC]*dT*dG*dA*dA*dA*dG*d[5mC]*e[5mC]*e[5mC]*e[5mC]*e[5mC]*e[5mC]) [compound 771760]
- % Inhibition of SMAD7 mRNA [5]: 25%
- % inhibition of SMAD7 mRNA expression [3]: 3%

Substance: 771496 (antisense eT*eG*eA*e[5mC]*e[5mC]*dT*d[5mC]*dT*dA*dG*d[5mC]*d[5mC]*dA*dG*d[5mC]*eA*e[5mC]*eG*eG*eG) [compound 771496]
- % inhibition of SMAD7 mRNA expression [1]: 20%

Substance: 771646 (antisense eT*eA*eT*eG*eA*dG*dT*dT*dG*dT*dA*dG*dA*dA*dG*eA*eA*eA*eT*eG) [compound 771646]
- % inhibition of SMAD7 mRNA expression [1]: 0%

Substance: 771558 (antisense eA*eA*eA*eT*eG*dA*dT*dG*dA*d[5mC]*d[5mC]*dG*d[5mC]*d[5mC]*d[5mC]*e[5mC]*e[5mC]*e[5mC]*eT*eT) [compound 771558]
- % inhibition of SMAD7 mRNA expression [1]: 7%

Substance: 771374 (antisense eA*eG*e[5mC]*eA*eT*dG*dA*dA*dA*dG*dA*d[5mC]*dA*dA*dA*e[5mC]*e[5mC]*eA*e[5mC]*eA) [compound 771374]
- % Inhibition [1]: 51%
- % inhibition of SMAD7 mRNA expression [2]: 44%

Substance: 771934 (antisense e[5mC]*eT*eG*eG*eA*dA*dA*dG*dG*dA*dA*dG*dA*d[5mC]*dT*e[5mC]*eG*eA*eG*eG) [compound 771934]
- % Inhibition [1]: 15%

Substance: 771713 (antisense eT*eG*e[5mC]*e[5mC]*eT*dA*d[5mC]*dA*d[5mC]*dA*d[5mC]*dA*dA*dA*dA*eA*eG*e[5mC]*e[5mC]*eA) [compound 771713]
- % inhibition of SMAD7 mRNA expression [3]: 15%

Substance: 771363 (antisense eT*e[5mC]*eA*eG*eG*d[5mC]*dT*dT*d[5mC]*dA*d[5mC]*dT*dG*d[5mC]*d[5mC]*e[5mC]*eA*eT*e[5mC]*eG) [compound 771363]
- % Inhibition of SMAD7 mRNA [5]: 35%
- % inhibition of SMAD7 mRNA expression [3]: 12%

Substance: 771720 (antisense e[5mC]*eA*eG*eG*e[5mC]*dA*dG*dA*dG*d[5mC]*dT*dA*dT*dG*d[5mC]*eT*eT*e[5mC]*eA*eA) [compound 771720]
- % Inhibition of SMAD7 mRNA [5]: 37%
- % inhibition of SMAD7 mRNA expression [3]: 20%

Substance: 771707 (antisense eT*eT*eG*eT*eT*d[5mC]*d[5mC]*dT*d[5mC]*dT*dG*d[5mC]*dA*d[5mC]*d[5mC]*e[5mC]*eT*eG*eG*eG) [compound 771707]
- % Inhibition [1]: 42%
- % inhibition of SMAD7 mRNA expression [2]: 0%

Substance: 771382 (antisense eA*eA*eA*eT*eA*dA*dA*dA*dA*d[5mC]*dA*d[5mC]*d[5mC]*dA*dA*eG*eA*eT*e[5mC]*e[5mC]) [compound 771382]
- % Inhibition [1]: 0%
- % inhibition of SMAD7 mRNA expression [2]: 55%

Substance: 771409 (antisense e[5mC]*e[5mC]*e[5mC]*e[5mC]*eT*dG*d[5mC]*dG*d[5mC]*d[5mC]*d[5mC]*dT*d[5mC]*d[5mC]*dT*e[5mC]*e[5mC]*eT*e[5mC]*eG) [compound 771409]
- % Inhibition of SMAD7 mRNA [5]: 33%
- % inhibition of SMAD7 mRNA expression [3]: 19%

Substance: 771830 (antisense eT*eT*eT*eA*eG*dG*dT*dA*dG*dA*dG*dT*dG*dG*d[5mC]*e[5mC]*eG*eG*eG*eA) [compound 771830]
- % Inhibition [1]: 40%

Substance: 771912 (antisense eA*eT*eA*eT*eT*d[5mC]*d[5mC]*dT*d[5mC]*dT*dG*d[5mC]*d[5mC]*dA*dA*eA*eG*eT*e[5mC]*e[5mC]) [compound 771912]
- % Inhibition of SMAD7 mRNA [5]: 44%
- % inhibition of SMAD7 mRNA expression [3]: 19%

Substance: 771389 (antisense e[5mC]*eA*e[5mC]*e[5mC]*e[5mC]*d[5mC]*dG*d[5mC]*dG*d[5mC]*dG*dG*d[5mC]*d[5mC]*d[5mC]*eG*e[5mC]*eG*e[5mC]*e[5mC]) [compound 771389]
- % inhibition of SMAD7 mRNA expression [3]: 18%

Substance: 771840 (antisense eA*eG*eA*eT*eG*d[5mC]*dT*dT*d[5mC]*dT*dA*dG*dG*dT*dG*eA*eA*e[5mC]*e[5mC]*eA) [compound 771840]
- % Inhibition of SMAD7 mRNA [5]: 30%
- % inhibition of SMAD7 mRNA expression [3]: 16%

Substance: 771929 (antisense e[5mC]*eT*eT*eT*e[5mC]*d[5mC]*dA*dG*d[5mC]*dA*dA*dA*dA*d[5mC]*d[5mC]*eA*eT*eT*e[5mC]*eG) [compound 771929]
- % inhibition of SMAD7 mRNA expression [3]: 0%

Substance: 771498 (antisense e[5mC]*eT*eG*eT*eT*dG*dA*dA*dG*dA*dT*dG*dA*d[5mC]*d[5mC]*eT*e[5mC]*eT*eA*eG) [compound 771498]
- % inhibition of SMAD7 mRNA expression [3]: 48%

Substance: 771682 (antisense eT*eG*eT*eT*eA*dT*dT*dT*dG*d[5mC]*dA*dT*dT*dT*dA*eT*eA*eT*eT*eA) [compound 771682]
- % inhibition of SMAD7 mRNA expression [5]: 18%

Substance: 771494 (antisense e[5mC]*eA*eG*e[5mC]*eA*d[5mC]*dG*dG*dG*d[5mC]*dA*dG*d[5mC]*dT*dG*e[5mC]*eT*eG*eA*eT) [compound 771494]
- % inhibition of SMAD7 mRNA expression [4]: 20%

Substance: 771806 (antisense eA*e[5mC]*eA*eA*eT*dG*dA*dA*dT*dA*dA*dT*dT*dG*dT*eT*e[5mC]*eA*e[5mC]*eG) [compound 771806]
- % Inhibition [1]: 0%
